The source of these data is patent US20250287945A1, “COMPOSITIONS FOR FUNGAL CONTROL AND RELATED METHODS” (priority 2021, published 2025).

Several values for one entry are separate records, joined by “and”; a condition that tells them apart may be missing. Equal entries are not always repeated. Where two headings read alike, the source gives them in different places.

Data set [1] has as its system Fusarium conidial suspension. The data set can be described thus: Fusarium viability colorimetric assay (PrestoBlue resazurin). The data set is classed as cell-based. The protocol: A Fusarium conidial suspension was prepared from a 7-day culture of Fusarium biomass grown on potato dextrose agar for 7 days, and quantified by hemocytometer, as described in Example 4. Solutions of fenpiclonil (Millipore Sigma, Cat. no. 36532) and of the individual peptides were prepared in 50% (w/v) ethanol in water, and tested using a PrestoBlue™ (resazurin) viability colorimetric assay as described in Example 4.
The Fusarium conidial suspension, peptide or control treatment solution, and potato dextrose broth (Alpha Biosciences, catalogue no. P16-126) were added to each well of a 96-well plate to obtain the desired treatment concentration and 1×10^6 conidia/mL in a final volume of 150 microliters per well. The plates were covered and incubated at 30° C. for 18 hours and 200 rpm. Fifteen microliters of PrestoBlue™ Cell Viability Reagent (Thermofisher Scientific, Cat no. A13262) were added to each well, and the plate was further incubated before measuring fluorescence at 590 nm emission with excitation at 560 nm using a spectrophotometer (BioTek Synergy H1 Microplate Reader, Fischer Scientific, Cat. no. 11-120-533).

Data set [2] deals with Nicotiana benthamiana leaves. The data set can be described thus: Phytotoxicity at the treatment site on detached leaves. The data set is classed as in vivo. Conditions: 275 micromolar in 50% ethanol, 100 microliters on leaf quadrant.
Data set [3] deals with Botrytis cinarea (strain CBS 261.71). The data set can be described thus: Botrytis viability colorimetric assay (PrestoBlue resazurin). The following applies: 375 micromolar. The class given is cell-based, Botrytis cinerea.
The subject of data set [4] is Mucor circinelloides f. janssenii CBS 204.68. The data set can be described thus: Micro broth dilution assay in 96-well plates. The data set is classed as cell-based. Conditions: 3 days of incubation; 375 micromolar or 187.5 micromolar; preliminary.
Data set [5] relates to Aspergillus fumigatus CBS 120.53. The data set can be described thus: Micro broth dilution assay in 96-well plates. The following applies: 3 days of incubation; 375 micromolar or 187.5 micromolar; preliminary. The data set is classed as cell-based.
In data set [6] the test system is conidia of Fusarium proliferatum. The data set can be described thus: oCelloScope live-cell imaging of fungal growth (SESA algorithm). The class given is cell-based.
Data set [7] relates to Cryptococcus neoformans DSM 70219. The data set can be described thus: Micro broth dilution assay in 96-well plates. The data set is classed as cell-based. The following applies: 2 days of incubation; 375 micromolar; preliminary.
Data set [8] concerns Aspergillus flavus DSM 1959. The data set can be described thus: Micro broth dilution assay in 96-well plates. The class given is cell-based. Conditions: 3 days of incubation; 375 micromolar or 187.5 micromolar; preliminary.
Data set [9] deals with Rhizomucor miehei CBS 147454. The data set can be described thus: Micro broth dilution assay in 96-well plates. The class given is cell-based. The following applies: 3 days of incubation; 375 micromolar or 187.5 micromolar; preliminary.
In data set [10] the test system is Fusarium oxysporum CBS 130311. The data set can be described thus: Micro broth dilution assay in 96-well plates. Conditions: 3 days of incubation; 375 micromolar or 187.5 micromolar; preliminary. The data set is classed as cell-based.
In a further data set the test system is Botrytis cinerea. The data set can be described thus: Fungal lesion size on detached Nicotiana benthamiana leaves after topical treatment. The data set is classed as in vivo, Botrytis cinerea on Nicotiana benthamiana leaves. The protocol: In one experiment, leaves of similar age were cut from healthy Nicotiana benthamiana plants and the petioles set into plates containing water agar. Leaves were visually divided into quadrants. […] The plates were covered and placed in a humidified secondary container and incubated in a growth chamber under a 14-hour light (20 degrees C.): 10-hour dark (18 degrees C.) cycle. After 11 days, fungal lesions on leaves were photographed and measured manually with a ruler. Leaves were then destained in 70% ethanol for 48 hours with a change of ethanol at 24 hours, rehydrated in water for at least 1 hour, photographed, and the area of the fungal lesions quantified using ImageJ software (see imagej[dot]nih[dot]gov/ij/). […] The leaf quadrants inoculated with B. cinerea and treated with 100 microliters of treatment solution (MES buffer or HH38 in MES buffer) had comparatively larger areas wetted with liquid. All of the leaf quadrants treated with 5 mM MES buffer developed large (average 1.72 cm width) fungal lesions characterized by grey-black fungal growth. […] […] Twenty microliters of a given treatment mixture were pipetted onto a leaf quadrant (3 replicate leaves per treatment for a total of 12 quadrants). After 7 days incubation in a growth chamber, leaves were photographed, destained in 70% ethanol, photographed again, and the area of the fungal lesions quantified using ImageJ software. […] The fungal lesions in the HH38 treatment were also observed to be 39% smaller than in the 2% DMSO treatment, and 19% smaller than in the 5 mM MES treatment, although not to a statistically significant degree using an unpaired t test.

In another data set the test system is Fusarium culmorum. The class given is cell-based.
In the next data set the test system is Fusarium graminearum. The data set is classed as cell-based. Conditions: 22 hours incubation; modified RPMI medium, 25 degrees Celsius; concentration not given.
For another data set, the system named is Phytophthora infestans. The class given is cell-based. Conditions: 7 days incubation; modified RPMI medium, 25 degrees Celsius; concentration not given.
The next data set relates to Zymoseptoria tritici. The data set is classed as cell-based.
The mark [11] stands for this setting: first experiment, 275 micromolar HH38 in 5 mM MES buffer, after 11 days, lesion area by ImageJ, replicate leaves 1-3.
[12] abbreviates: first experiment, 275 micromolar HH38 in 5 mM MES buffer, after 11 days, ruler, replicate leaves 1-3.
[13] abbreviates: second experiment, inoculum pre-mixed with HH38, 7 days, ImageJ area, not statistically significant.

As to `N#Cc1c[nH]cc1-c1cccc(Cl)c1Cl` [Fenpiclonil, 4-(2,3-dichlorophenyl)-1H-pyrrole-3-carbonitrile, reference compound], the “Percent Inhibition (Fusarium), Experiment 4, Mean” value in data set [1] (Experiment 4, four replicates, protocol and peptides as third experiment (175 and 375 micromolar), concentration not given) was 82.25%. The “Percent Inhibition (Fusarium), Experiment 5, Mean” value in [1] (Experiment 5, four replicates, protocol and peptides as third experiment (175 and 375 micromolar), concentration not given) is 79.19%. In addition, the “phytotoxicity (tissue necrosis at the treatment site)” value in [2] was “phytotoxic”. In data set [3] (Botrytis, CBS261, four replicates, read-out: Percent Inhibition (Botrytis), Mean), the inhibition at 375 µM is 75.8%.

Turning to “WHWLQLKPGQPMYGGGGSWHWLQLKPGQPMY (listed as Saccharomyces cerevisiae) [SEQ ID NO: 2189, Saccharomyces cerevisiae alpha pheromone homodimer including glycine linker]”, the “Percent Inhibition (Fusarium), Experiment 5, Mean” value in data set [1] was determined as 79.77%. Further, the “inhibition of growth / growth pattern” value in data set [4] is listed as “sometimes induced changes in growth pattern”. The “inhibition of growth / growth pattern” value in data set [5] is recorded as “sometimes induced changes in growth pattern”. Moreover, the “statistical significance of antifungal activity” value in data set [6] is on record as “statistically significant antifungal activity”. For the same compound, the “growth / growth pattern” value in data set [7] is reported as “change this species' growth pattern”. Also, in data set [8], the “inhibition of growth / growth pattern” value was “sometimes induced changes in growth pattern”. In addition, the “inhibition of growth / growth pattern” value in [9] was “sometimes induced changes in growth pattern”. The “Botrytis cell viability versus untreated / 50% ethanol carrier” value in data set [3] is given as “reducing Botrytis cell viability as well as did the fenpiclonil treatment”. In data set [3] (four replicates), the “Percent Inhibition (Botrytis), Mean” value worked out at 79.77%. Besides, the “viability decrease relative to that obtained with the positive control (fenpiclonil)” value in data set [3] (sentence prints Fusarium in the Botrytis assay) is reported as “roughly about two-thirds of the viability decrease obtained using the positive control”. Moreover, the “inhibition of growth / growth pattern” value in data set [10] is “sometimes induced changes in growth pattern”. The “Lesion 1 (cm)” value in the data set with Botrytis cinerea (first experiment, 275 micromolar HH38 in 5 mM MES buffer, 100 microliters per inoculated leaf quadrant, after 11 days, measured with a ruler, replicate leaves 1-3) is 0 cm. Further, the “Lesion 1 (pixels)” value in the data set on Botrytis cinerea (first experiment, 275 micromolar HH38 in 5 mM MES buffer, after 11 days, destained leaves, lesion area by ImageJ, replicate leaves 1-3) stood at 0 pixels. The “Treatment Average (pixels)” value in the data set with Botrytis cinerea (first experiment, 275 micromolar HH38 in 5 mM MES buffer, after 11 days, lesion area by ImageJ, average of 3 leaves) was determined as 157 pixels. In addition, in the data set with Botrytis cinerea (first experiment, 275 micromolar HH38 in 5 mM MES buffer, after 11 days, lesion area by ImageJ, average of 4 quadrants), the “Replicate Averages (pixels)” value was 0.00 pixels (2×) and 472 pixels. Further, in the data set with Botrytis cinerea (setting [11]), the “Lesion 2 (pixels)” value was 0 pixels (2×) and 1889 pixels; the “Lesion 3 (pixels)” value is recorded as 0 pixels; the “Lesion 4 (pixels)” value was 0 pixels. Further, in the data set on Botrytis cinerea (first experiment, 275 micromolar HH38 in 5 mM MES buffer, after 11 days, ruler, average of 3 leaves), the “Treatment Average (cm)” value stood at 0.042 cm. The “Average (cm) per replicate leaf” value in the data set on Botrytis cinerea (first experiment, 275 micromolar HH38 in 5 mM MES buffer, after 11 days, ruler, average of 4 quadrants) is 0 cm (2×) and 0.12 cm. Besides, in the data set with Botrytis cinerea (setting [12]), the “Lesion 2 (cm)” value is 0 cm (2×) and 0.5 cm; the “Lesion 3 (cm)” value amounted to 0 cm; the “Lesion 4 (cm)” value is 0 cm. Besides, the “leaf quadrants that developed any measurable fungal lesion” value in the data set on Botrytis cinerea (first experiment, result sentence prints 375 micromolar HH38 (method: 275 micromolar), after 11 days) is recorded as 1 out of 12. In the data set with Botrytis cinerea (setting [13]), the “fungal lesions smaller than in the 5 mM MES treatment” value was 19% and the “fungal lesions smaller than in the 2% DMSO treatment” value is reported as 39%. Moreover, the “fungal lesions smaller than the untreated (diluted grape juice) control” value with Botrytis cinerea (second experiment, inoculum pre-mixed with in 2% DMSO in 5 mM MES buffer, 7 days, ImageJ area, statistically significant (unpaired t test)) stood at 44%.

In the case of WHWLQLKPGQPMYRRRRRRRR [SEQ ID NO: 2240], the “inhibition relative to a control” value with Fusarium culmorum, with Fusarium graminearum, in the data set with Phytophthora infestans and in the data set with Zymoseptoria tritici was at least 50% each time.
